Converted amounts (≈) assume the structure as drawn. A value given as a limit tells only on which side of the number the result lay.

In experiment [1] the target is T1, Pancreatic alpha-amylase (Sus scrofa, UniProt P00690).
T1 sequence (P00690 whole entry): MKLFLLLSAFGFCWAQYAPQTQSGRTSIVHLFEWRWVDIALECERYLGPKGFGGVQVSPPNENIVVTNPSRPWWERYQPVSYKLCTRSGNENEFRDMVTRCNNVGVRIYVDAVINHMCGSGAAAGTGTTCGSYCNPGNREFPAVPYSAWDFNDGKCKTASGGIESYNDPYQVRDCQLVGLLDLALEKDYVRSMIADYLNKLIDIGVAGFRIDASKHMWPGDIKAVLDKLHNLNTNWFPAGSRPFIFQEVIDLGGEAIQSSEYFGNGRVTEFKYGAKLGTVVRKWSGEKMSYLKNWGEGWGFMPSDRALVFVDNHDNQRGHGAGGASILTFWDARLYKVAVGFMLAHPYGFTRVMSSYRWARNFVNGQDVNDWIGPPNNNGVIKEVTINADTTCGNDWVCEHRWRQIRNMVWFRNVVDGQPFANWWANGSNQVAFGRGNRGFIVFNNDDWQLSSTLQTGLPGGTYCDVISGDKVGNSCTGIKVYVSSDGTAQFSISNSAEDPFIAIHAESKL
Put plainly: Inhibition of porcine pancreatic alpha-amylase using 1% starch as substrate preincubated for 10 mins followed by substrate addition and measured after 10 mins by absorbance method.

Experiment [2] deals with Candida albicans. Put plainly: Antifungal activity against Candida albicans ATCC 10231 incubated for 24 hrs by broth microdilution method. The class given is functional. Background: In broth dilution the organism is exposed to a series of concentrations in liquid medium.
Experiment [3] relates to Escherichia coli. Put plainly: Antibacterial activity against Escherichia coli ATCC 8739 incubated for 24 hrs by broth microdilution method. The class given is functional.
For experiment [4], the system named is Staphylococcus aureus. Put plainly: Antibacterial activity against Staphylococcus aureus ATCC 6538P incubated for 24 hrs by broth microdilution method. Format: functional.
For experiment [5], the system named is HEK293. Put plainly: Cytotoxicity against HEK293 cells after 24 hrs by MTT assay. The class given is cell-based. The following applies: Homo sapiens, HEK293, 24 h. In general terms: Tetrazolium assays rely on reduction of a dye to a coloured formazan, in cell work by metabolically active cells.
Experiment [6] concerns Entamoeba histolytica. Put plainly: Antiamoebic activity against Entamoeba histolytica HK9 ATCC 30015 incubated for 72 hrs by trypan blue staining based assay. The settings on record: ATCC 30015, 72 h. Format: functional, organism-based.
For experiment [7], the system named is Giardia intestinalis. Put plainly: Antigiardial activity against Giardia intestinalis WB ATCC 30957 by trypan blue staining based assay. The class given is functional, organism-based. The settings on record: Giardia duodenalis.
The test system of experiment [8] is Entamoeba histolytica. Put plainly: Antiamoebic activity against Entamoeba histolytica HK9 ATCC 30015 by trypan blue staining based assay. Format: functional, organism-based.
For experiment [9], the system named is Clostridium sporogenes. Put plainly: Antimicrobial activity against Clostridium sporogenes ATCC 19404 incubated for 24 hrs by broth microdilution method. The class given is functional.
The subject of experiment [10] is Leishmania braziliensis. Put plainly: Antileishmanial activity against promastigote form of Leishmania braziliensis MHOM/BR/75/M2903 measured for 7 days by cell counting method. The class given is functional. The settings on record: MHOM/BR/75/M2903, 168 h, time 7 day.
In experiment [11] the test system is Leishmania mexicana. Put plainly: Antileishmanial activity against promastigote form of Leishmania mexicana MHOM/BZ/82/Bel21 measured for 7 days by cell counting method. Format: functional. The settings on record: MHOM/BZ/82/Bel21, 168 h, time 7 day.
The target in experiment [12] is Carbonic anhydrase 9 (Homo sapiens, UniProt Q16790). Put plainly: Inhibition of recombinant human carbonic anhydrase 9 preincubated with enzyme for 15 mins by phenol red dye based stopped flow CO2 hydration assay.
The target of experiment [13] is Carbonic anhydrase 2 (Homo sapiens, UniProt P00918). Put plainly: Inhibition of recombinant human carbonic anhydrase 2 preincubated with enzyme for 15 mins by phenol red dye based stopped flow CO2 hydration assay.

A word on the IC50: it is the point on the concentration scale where inhibition reaches its midpoint. `Cc1ncc([N+](=O)[O-])n1CCOCc1ccccc1` had a half-maximal inhibitory concentration (IC50) in experiment [1] below 2.98 µM.
The MIC is the smallest concentration in the dilution series that meets the test's criterion for growth inhibition. In turn, `Cc1ccc(/C=N/CCn2c([N+](=O)[O-])cnc2C)cc1` showed an MIC in experiment [2] of 170 µM (≈ 46.3 µg/mL).
Take `COc1ccc(/C=N/CCn2c([N+](=O)[O-])cnc2C)cc1`: the MIC in experiment [2] worked out at 170 µM (≈ 49 µg/mL).
For `Cc1ncc([N+](=O)[O-])n1CC/N=C/c1ccc([N+](=O)[O-])cc1`, 170 µM (≈ 51.6 µg/mL) was the least that counted as inhibitory in [2] (MIC).
Regarding `Cc1ncc([N+](=O)[O-])n1CC/N=C/c1ccccc1O`, the MIC in experiment [3] worked out at 2240 µM (≈ 614 µg/mL); in experiment [2], 170 µM (≈ 46.6 µg/mL); in experiment [4], 2000 µM (≈ 549 µg/mL).
Turning to `Cc1ncc([N+](=O)[O-])n1CC/N=C/c1cc(Cl)ccc1O`, the figures for the MIC in [3], in experiment [2] and in experiment [4] were 760 µM (≈ 235 µg/mL), 170 µM (≈ 52.5 µg/mL) and 760 µM (≈ 235 µg/mL), respectively.
For the compound `Cc1ncc([N+](=O)[O-])n1CC/N=C/c1ccccc1Cl`, inhibition of growth in experiment [2] (MIC) required 170 µM (≈ 49.8 µg/mL).
With `Cc1ncc([N+](=O)[O-])n1CC/N=C/c1cccs1`, 170 µM (≈ 44.9 µg/mL) was the least that counted as inhibitory in experiment [2] (MIC).
For `Cc1ncc([N+](=O)[O-])n1CC/N=C/c1ccc(F)cc1`, the MIC in [2] was found to be 170 µM (≈ 47 µg/mL).
In turn, `Cc1ncc([N+](=O)[O-])n1Cc1cn(CCCCCN2C(=O)C(=O)c3cc(Cl)ccc32)nn1` came in with an IC50 in experiment [5] of 12.1 µM.
For `Cc1ncc([N+](=O)[O-])n1CCNC(=O)/C=C/c1ccc([N+](=O)[O-])o1`, in experiment [6], the IC50 came out at 5.32 µM.
Take `Cc1ncc([N+](=O)[O-])n1CCN1CCN(c2ccnc3cc(Cl)ccc23)CC1`: half-maximal inhibition in experiment [6] (IC50) required 0.96 µM.
With `COc1cc(COCCn2c([N+](=O)[O-])cnc2C)cc(OC)c1`, the IC50 in [1] was below 2.98 µM.
For the compound `CCOC(=O)[C@H](CC(=O)O)NC(=O)Cn1c([N+](=O)[O-])cnc1C`, the IC50 in [7] is 2.26 µM; in [8], 2.21 µM.
In the same order, the values of `CCOC(=O)C(CCCCNC(=O)C(C)n1c([N+](=O)[O-])cnc1C)NC(=O)Cn1c([N+](=O)[O-])cnc1C` (stereo not given) are 3.84 µM and 3.95 µM.
With `Cc1ncc([N+](=O)[O-])n1CCSc1nnc(-c2ccncc2)n1-c1cccc2ccccc12`, the MIC in experiment [9] is 17.1 µM (≈ 7.82 µg/mL).
With `COc1ccc(COCCn2c([N+](=O)[O-])cnc2C)cc1`, in experiment [1], the IC50 is below 2.98 µM.
Take `Cn1c(-c2ccncc2)n[nH]c1=S`: the IC50 in experiment [7] was determined as 1.56 µM; in experiment [8] it was 1.37 µM.
In turn, `Cc1ccc(COCCn2c([N+](=O)[O-])cnc2C)cc1` yielded an IC50 in experiment [1] below 2.98 µM.
One may read the LC50 as the concentration lethal to half of the exposed cells or organisms. The low end stands for greater toxicity, the high end for lower toxicity. For `Cc1ncc([N+](=O)[O-])n1CCSCOC(=O)c1cc(O)c(O)c(O)c1`, the median lethal concentration (LC50) in [10] was found to be 4 µM; in experiment [11] it was 1 µM.
Take `Cc1ncc([N+](=O)[O-])n1CCOc1cccc(/C=N\c2ccc(S(=O)(=O)Nc3nccs3)cc2)c1`: the results for the IC50 in experiment [12] and in experiment [13] were 0.038 µM and 0.089 µM, respectively.
In [1], `Cc1ccccc1COCCn1c([N+](=O)[O-])cnc1C` returned an IC50 below 2.98 µM.
Compound `Cc1ncc([N+](=O)[O-])n1CCOCc1cccc([N+](=O)[O-])c1` gave an IC50 in [1] below 2.98 µM.
For the compound `Cc1ncc([N+](=O)[O-])n1CCSCOC(=O)c1ccc(O)c(O)c1`, the LC50 in [10] came out at 13 µM; in experiment [11], 11 µM.
`Cc1ncc([N+](=O)[O-])n1CCOCc1ccc(Cl)cc1` yielded an IC50 in experiment [1] below 2.98 µM.

The values are drawn from ChEMBL document CHEMBL4813920, “Metronidazole-conjugates: A comprehensive review of recent developments towards synthesis and medicinal perspective” (Eur J Med Chem, 2021).
